Reference: patent US20180353501A1 (Arvinas, Inc., priority 2017, published 2018)

Target: T1, p38δ (Homo sapiens, UniProt O15264)
T1 construct: endogenous in cells; host or cells: MDA-MB-231 (intact cells for degradation; cleared cell lysate for CETSA)
T1 sequence (O15264 1-365): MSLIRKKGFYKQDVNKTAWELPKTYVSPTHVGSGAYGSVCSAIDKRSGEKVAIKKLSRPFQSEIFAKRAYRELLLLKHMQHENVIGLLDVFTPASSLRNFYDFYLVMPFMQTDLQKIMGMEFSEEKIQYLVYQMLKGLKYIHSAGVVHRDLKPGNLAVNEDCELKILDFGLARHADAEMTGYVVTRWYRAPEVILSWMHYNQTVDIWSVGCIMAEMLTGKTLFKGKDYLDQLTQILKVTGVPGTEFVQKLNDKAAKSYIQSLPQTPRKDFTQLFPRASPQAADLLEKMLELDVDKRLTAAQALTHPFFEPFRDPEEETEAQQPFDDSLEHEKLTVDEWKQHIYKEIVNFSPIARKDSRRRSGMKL
Assay: Cellular thermal shift assay (CETSA), MDA-MB-231 cell lysate
Type: cell-based
Details: 100 μM, 30 minutes, 51-55° C., vs DMSO
Description: FIGS. 17A and 17B. […] (A) Cellular thermal shift assay (CETSA) was conducted in MDA-MB-231 cells as a means to monitor cellular target engagement. Cell lysate was incubated with either vehicle (DMSO), exemplary compound 50 (100 μM), or exemplary compound 46 (100 μM) for 30 minutes prior to melting at the indicated temperatures. Assay was performed in duplicate and western blots of p38δ and α-tubulin (negative control) are shown. (B) Raw band intensities from (A) were measured, averaged, and reported (with SD) with increasing temperature (51-55° C.) from left-to-right. Top: p38δ CETSA analysis. […] Bottom: α-tubulin CETSA analysis.
To further assess these findings, a more biologically-relevant context for measuring ternary complex formation was used. […] Thus, whether PROTAC-induced PPIs could be monitored in a complex cellular environment using CETSA was examined. […]
CETSA protocol was adapted from (Mateus A, Maatta T A, & Savitski M M (2016) Thermal proteome profiling: unbiased assessment of protein state through heat-induced stability changes. Proteome Sci 15:13). […] After cooling, samples were spun down for 20 minutes (14,000×g at 4° C.) and the supernatant (soluble fraction) was analyzed by SDS-PAGE and immunoblotted for p38δ and alpha-tubulin (negative control).

Compound | thermal shift in the p38δ melting profile
COc1cc2c(Oc3ccc(NC(=O)C4(C(=O)Nc5ccc(F)cc5)CC4)cc3F)ccnc2cc1OCCOCCOCCOc1cc(-c2scnc2C)ccc1CNC(=O)[C@@H]1C[C@@H](O)CN1C(=O)[C@H](C(C)C)N1Cc2ccccc2C1=O [compound 46] | more pronounced at each melting temperature tested
COc1cc2c(Oc3ccc(NC(=O)C4(C(=O)Nc5ccc(F)cc5)CC4)cc3F)ccnc2cc1OCCCCOCCCCOCC(=O)N[C@H](C(=O)N1C[C@H](O)C[C@H]1C(=O)NCc1ccc(-c2scnc2C)cc1)C(C)(C)C [compound 50, N-(3-fluoro-4-((7-(4-(4-(2-(((S)-1-((2S,4R)-4-hydroxy-2-((4-(4-methylthiazol-5-yl)benzyl)carbamoyl)pyrrolidin-1-yl)-3,3-dimethyl-1-oxobutan-2-yl)amino)-2-oxoethoxy)butoxy)buto-xy)-6-methoxyquinolin-4-yl)oxy)phenyl)-N-(4-fluorophenyl)cyclopropane-1,1-dicarboxa-mide] | small, but statistically-significant (p=0.0121) thermal shift
